Assay results: US9801809B2, “Compositions including a botanical extract and methods of using the same in skin whitening and skin lightening applications” (Access Business Group International LLC, priority 2014, dated 2017)

Tested on: Melan-a cells
Assay: Melanin production in Melan-a cells
Format: cell-based
Details: extract 25 μg and 12.5 μg, treated twice, compared to 100% untreated control, FIG. 3
Procedure: The chrysanthemum extract in an amount of 25 μg and 12.5 μg was solubilized in DMSO and added to Melan-a cells that were freshly seeded at a density of 5×10^4 cells on a 24 well plate. The cytosolic pH of the Melan-a melanocytes in this assay is about 5-7. Each dose of the chrysanthemum extract was added to the cells in triplicate. The final concentration of DMSO in the culture medium was maintained at 0.25%. Forty eight hours following the first set of treatment, the cells were again treated with the chrysanthemum extract and supplemented with fresh medium. Two days later, melanin was extracted and quantified by normalizing with protein content, following the method described by Komatsu et al. (J. Cosmet. Sci; 64, 455-453 (2013); Rana J. et al., Pigment Cell Res., 18:447 (2005)). Inhibitory activity of samples was reported as % reduction in melanin production compared to 100% untreated control (UT). Phenylthiourea (PTU), a well-known tyrosinase inhibitor was used as positive inhibitor control in the assay. FIG. 3 plots the results.

## O=c1cc(-c2ccc(O)c(O)c2)oc2cc(O[C@@H]3OC(CO)[C@@H](O)C(O)C3O)cc(O)c12 (stereo partly shown) [luteolin-7 glucoside]
  reduction in melanin production: dose-dependent inhibition
